Measurements: patent US4722922A, “Tetrapeptide amides in the treatment of hypertension” (priority 1985, dated 1988)
Structures can show the parent of a compound that is named as a salt. Non-standard residues stand in square brackets, D forms with d. Residues, ends and D or L forms follow the SMILES beside them. No end group written: not given here. *: point of attachment. dTyr(3-tBu) = CC(C)(C)c1cc(C[C@@H](N)C(=O)O)ccc1O; Tyr(3-tBu) = CC(C)(C)c1cc(C[C@H](N)C(=O)O)ccc1O; dMet(O2) = CS(=O)(=O)CC[C@@H](N)C(=O)O; Sta = CC(C)C[C@H](N)[C@@H](O)CC(=O)O; Isovaleryl = CC(C)CC(=O)*; Ahx = NCCCCCC(=O)O

How the values were obtained:
[1] = target: T1, human renin (Homo sapiens, UniProt P00797); experiment: Inhibition of Human Renin (angiotensin I formation, radioimmunoassay); format: biochemical; conditions: for % Inhibition: human renin test, 0.1 mGU/ml human renin, human plasma, two-hour incubation at 37° C., pH 7.5, test compound concentration not given
T1 construct: human renin, isolated from kidneys, was obtained from the World Health Organization International Laboratory for Biological Standards; tissue World Health Organization International Laboratory for Biological Standards (National Institute for Biological Standards and Control, London, England); host or cells: human kidney
T1 sequence (P00797 67-406): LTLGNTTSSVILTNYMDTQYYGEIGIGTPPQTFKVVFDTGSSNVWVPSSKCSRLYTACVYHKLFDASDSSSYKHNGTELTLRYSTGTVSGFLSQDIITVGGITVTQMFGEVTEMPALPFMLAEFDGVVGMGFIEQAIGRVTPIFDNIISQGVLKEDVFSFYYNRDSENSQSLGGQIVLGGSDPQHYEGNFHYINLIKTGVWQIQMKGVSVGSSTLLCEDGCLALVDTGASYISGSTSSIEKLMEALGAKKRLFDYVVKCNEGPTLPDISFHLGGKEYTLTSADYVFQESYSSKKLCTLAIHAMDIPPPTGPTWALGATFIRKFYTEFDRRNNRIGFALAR
Method: The renin inhibition activity of the compounds of this invention illustrated in the examples was tested by the following method.
Inhibition of Human Renin
International reference standard human renin, isolated from kidneys, was obtained from the World Health Organization International Laboratory for Biological Standards (National Institute for Biological Standards and Control, London, England). Renin activity is defined in "Goldblatt units" (GU), the quantity that, when injected directly into the blood stream of an unanesthetized dog, raises the direct mean femoral artery blood pressure by 30 mm Hg in about two minutes. E. Haas, L. Lewis, P. Scipione, and T. J. Koshy, Hypertension, 1, 112-117 (1979). Human angiotensinogen was used as an unisolated component of human blood plasma. The enzyme inhibition assay, see K. Poulsen, J. Burton, and E. Haber, Biochemistry, 12, 3877-3882 (1973), involved a two-hour incubation at 37° C. of the following final concentrations of reagents (0.25 ml total volume): 0.1 mGU/ml human renin; 0.05 ml human plasma; 6 mM disodium EDTA; 2.4 mM phenylmethylsulfonyl fluoride and 1.5 mM 8-hydroxyquinoline (angiotensinase inhibitors); 0.4 mg/ml bovine serum albumin; and 0.024 neomycin sulfate in 100 mM Tris-acetate buffer (pH 7.5). The enzymatic reaction was terminated by boiling the mixture for ten minutes. The quantity of angiotensin I formed was determined by radioimmunoassay, using the general method used in the angiotensin I radioimmunoassay kit of New England Nuclear.

[2] = tested on: renal-ligated hypertensive rat; experiment: Renal-ligated Hypertensive Rat Assay; format: in vivo, Sprague Dawley rats; conditions: renal-ligated rats
Method: Renal-ligated Hypertensive Rat Assay
Male Sprague Dawley rats aged 11 to 15 weeks old were used in this test. […] Test compounds were administered intra-arterially at a dose of 10 mg per kg of body weight, and blood pressure changes were monitored directly at 5, 10, and 15 minutes after injection.

Compound	% Inhibition [1] [%]	further results
O-(2-methylpropoxycarbonyl)-2-methyltyrosyl-D-methionylglycyl-N-(6-methoxy- 6-oxohexyl)-L-phenylalaninamide monohydrochloride hemihydrate [Example 63]	23	
COC(=O)CCCCCNC(=O)[C@H](Cc1ccccc1)NC(=O)CNC(=O)[C@@H](CCS(C)(=O)=O)NC(=O)[C@H](N)Cc1ccc(O)c(C(C)(C)C)c1 [Example 74, 3-t-butyl-D-tyrosyl-[4-(methylsulfonyl)-D-2-aminobutanoyl]glycyl-N-(6-methoxy-6-oxohexyl)-L-phenylalaninamide monohydrochloride hemihydrate] (H-[dTyr(3-tBu)][dMet(O2)]GF[Ahx]-OMe)	28	
O-(2-methylpropoxycarbonyl)-3-t-butyltyrosyl-[4-(methylsulfinyl)-D-2-aminobutanoyl]glycyl-N-(6-methoxy-6-oxohexyl)-L-phenylalaninamide monohydrochloride hemihydrate [Example 70]	25	
COC(=O)CCCCCNC(=O)[C@H](Cc1ccccc1)NC(=O)CNC(=O)[C@@H](CCS(C)(=O)=O)NC(=O)[C@@H](N)Cc1ccc(O)c(C(C)(C)C)c1 [Example 73, 3-t-butyl-L-tyrosyl-[4-(methylsulfonyl)-D-2-aminobutanoyl]glycyl-N-(6-methoxy-6-oxohexyl)-L-phenylalaninamide monohydrochloride hemihydrate] (H-[Tyr(3-tBu)][dMet(O2)]GF[Ahx]-OMe)	21	
O-(2-methylpropoxycarbonyl)-2,3,6-trimethyltyrosyl-[4-(methylsulfinyl)-D-2- aminobutanoyl]glycyl-N-(6-methoxy-6-oxohexyl)-L-phenylalaninamide monohydrochloride sesquihydrate [Example 58]	26	
COC(=O)CCCCCNC(=O)[C@H](Cc1ccccc1)NC(=O)CNC(=O)[C@@H](CCSC)NC(=O)[C@@H](N)Cc1ccc(OC(=O)OCC(C)C)c(C(C)(C)C)c1.Cl (racemic) [Example 69, O-(2-methylpropoxycarbonyl)-3-t-butyl-tyrosyl-D-methionylglycyl-N-(6-methoxy-6-oxohexyl)-L-phenylalaninamide monohydrochloride]	43	
O-(2-methylpropoxycarbonyl)-2-methyltyrosyl-[4-(methylsulfinyl)-D-2-aminobutanoyl]-glycyl-N-(6-methoxy-6-oxohexyl)-L-phenylalaninamide monohydrochloride hemihydrate [Example 64]	22	
CC(C)CC(=O)N[C@H](C(=O)N[C@H](C(=O)N[C@@H](CC(C)C)[C@@H](O)CC(=O)N[C@@H](C)C(=O)N[C@@H](CC(C)C)[C@@H](O)CC(=O)O)C(C)C)C(C)C [Pepstatin] (Isovaleryl-VV[Sta]A[Sta]-OH)		plasma renin activity ([2]; same test conditions): significantly reduced; mean arterial blood pressure ([2]; test compounds given intra-arterially, pressure read at 5, 10 and 15 minutes after injection): significantly reduced
PHPFHLFVY [Pro-[Phe^6]octapeptide, prolylhistidylprolylphenylalanylhistidylleucylphenylalanylvalyltyrosine, reference compound]		activity in the human renin inhibition assay ([1]; stated in words): active
2,4-dimethyl-3-hydroxyphenylalanyl-D-methionylglycyl-N-(6-methoxy-6-oxohexyl)-L-phenylalaninamide monohydrochloride hemihydrate [Example 77]	73	
